Source: ChEMBL document CHEMBL4024719, “Recent progress in the identification of selective butyrylcholinesterase inhibitors for Alzheimer's disease” (Eur J Med Chem, 2017)

Experiments:
Cholinesterase [1] = biological target: T1, Cholinesterase (Homo sapiens, UniProt P06276); assay: Inhibition of human […] BuChE using s-butyrylthiocholine as substrate pretreated for 30 mins followed by substrate addition after 25 mins by spectrophotometric method
Acetylcholinesterase [2] = biological target: Acetylcholinesterase (Homo sapiens, UniProt P22303); assay: Inhibition of human […] AChE using acetyl-(beta-methyl)thiocholine as substrate pretreated for 30 mins followed by substrate addition after 25 mins by spectrophotometric method
Cholinesterase [3] = biological target: T2, Cholinesterase (Equus caballus, UniProt P81908); assay: Inhibition of equine serum BuChE using butyrylthiocholine iodide as substrate pretreated for 10 mins followed by substrate addition by DTNB reagent based spectrophotometric method
Cholinesterase [4] = biological target: T2, Cholinesterase; assay: Inhibition of equine serum BChE using butyrylthiocholine iodide as substrate measured at 12 secs interval for 10 mins by Ellman's method
[5] = Selectivity ratio of IC50 for electric eel AChE to IC50 for equine serum BChE
Acetylcholinesterase [6] = biological target: T3, Acetylcholinesterase (Electrophorus electricus, UniProt O42275); assay: Inhibition of electric eel AChE using acetylthiocholine iodide as substrate measured at 12 secs interval for 10 mins by Ellman's method
Rattus norvegicus [7] = assay: In-vivo inhibition of BuChE in Harlan-Wistar rat brain assessed as increase in acetylcholine level at 2.5 mg/kg, ip by microdialysis method relative to control; type: functional
Rattus norvegicus [8] = assay: In-vivo inhibition of BuChE in Harlan-Wistar rat brain assessed as increase in acetylcholine level at 1.25 mg/kg, ip by microdialysis method relative to control; type: functional
Cholinesterase [9] = biological target: T1, Cholinesterase; assay: Inhibition of human BuChE
Cholinesterase [10] = biological target: T1, Cholinesterase; assay: Inhibition of human plasma BuChE using butyrylthiocholine iodine as substrate pretreated for 10 mins followed by substrate addition measured for 5 mins by Ellman's method
Acetylcholinesterase [11] = biological target: T4, Acetylcholinesterase (Bos taurus, UniProt P23795); assay: Inhibition of fetal bovine serum AChE using acetylthiocholine iodide as substrate
T4 sequence (P23795 whole entry): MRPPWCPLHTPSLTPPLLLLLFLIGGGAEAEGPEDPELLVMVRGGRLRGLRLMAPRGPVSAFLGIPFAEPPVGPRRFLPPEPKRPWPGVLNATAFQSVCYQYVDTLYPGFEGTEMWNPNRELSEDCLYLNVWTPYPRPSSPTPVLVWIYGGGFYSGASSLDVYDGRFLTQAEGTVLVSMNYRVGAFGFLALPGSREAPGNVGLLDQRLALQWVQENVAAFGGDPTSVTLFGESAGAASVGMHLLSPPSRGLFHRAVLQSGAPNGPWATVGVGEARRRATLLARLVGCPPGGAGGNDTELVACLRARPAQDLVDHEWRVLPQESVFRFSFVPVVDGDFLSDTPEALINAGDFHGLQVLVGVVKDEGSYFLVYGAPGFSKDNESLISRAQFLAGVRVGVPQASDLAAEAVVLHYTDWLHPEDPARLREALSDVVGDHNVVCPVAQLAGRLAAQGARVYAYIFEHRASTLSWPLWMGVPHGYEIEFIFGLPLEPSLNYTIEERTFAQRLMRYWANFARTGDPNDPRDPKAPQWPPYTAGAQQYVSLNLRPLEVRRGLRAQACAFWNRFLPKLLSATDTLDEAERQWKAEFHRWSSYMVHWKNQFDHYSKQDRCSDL

Cholinesterase [12] = biological target: T2, Cholinesterase; assay: Inhibition of equine serum BChE using butyrylthiocholine iodide as substrate
Cholinesterase [13] = biological target: T2, Cholinesterase; assay: Inhibition of equine serum BuChE using s-butyrylthiocholine iodide as substrate pretreated for 6 mins followed by substrate addition measured at 60 secs interval for 180 secs by Ellman's method
Acetylcholinesterase [14] = biological target: T3, Acetylcholinesterase; assay: Inhibition of electric eel AChE using acetylthiocholine iodide as substrate pretreated for 6 mins followed by substrate measured at 60 secs interval for 180 secs by Ellman's method
[15] = biological target: Acetylcholinesterase (Electrophorus electricus) (UniProt O42275); assay: Inhibition of electric eel AChE-induced human amyloid beta (1 to 40 residues) at 100 uM by thiofalvin-T fluorescence assay relative to control
Cholinesterase [16] = biological target: T1, Cholinesterase; assay: Inhibition of BuChE (unknown origin)
Homo sapiens = species on record: Homo sapiens; assay: Selectivity ratio of IC50 for human erythrocytes AChE to IC50 for human serum BuChE
[17] = biological target: Amyloid-beta precursor protein (Homo sapiens) (UniProt P05067); assay: Inhibition of HFIP-pretreated amyloid beta (1 to 42) (unknown origin) self-induced aggregation at 50 uM after 24 hrs by thioflavin-T fluorescence assay relative to control
[18] = Cytotoxicity against human T67 cells assessed as cell viability at 50 uM after 24 hrs by resazurin dye based spectrofluorimetric method relative to control; settings: read-out: Activity
Cholinesterase [19] = biological target: T1, Cholinesterase; assay: Inhibition of human serum BuChE using butyrylthiocholine iodide as substrate pretreated for 20 mins followed by substrate addition by DTNB reagent based spectrophotometric method
[20] = Cytotoxicity against human T67 cells assessed as cell viability at 10 uM after 24 hrs by resazurin dye based spectrofluorimetric method relative to control; settings: read-out: Activity
[21] = Cytotoxicity against human SH-SY5Y cells assessed as cell viability at 25 uM after 24 hrs by MTT assay relative to control; type: cell-based; settings: read-out: Activity
[22] = biological target: Amyloid-beta precursor protein (Homo sapiens) (UniProt P05067); assay: Inhibition of amyloid beta (1 to 42) (unknown origin) self-aggregation at 25 uM incubated for 30 mins measured every 5 mins for 14 hrs by thioflavin T fluorescence assay relative to control

T1 sequence (P06276 whole entry): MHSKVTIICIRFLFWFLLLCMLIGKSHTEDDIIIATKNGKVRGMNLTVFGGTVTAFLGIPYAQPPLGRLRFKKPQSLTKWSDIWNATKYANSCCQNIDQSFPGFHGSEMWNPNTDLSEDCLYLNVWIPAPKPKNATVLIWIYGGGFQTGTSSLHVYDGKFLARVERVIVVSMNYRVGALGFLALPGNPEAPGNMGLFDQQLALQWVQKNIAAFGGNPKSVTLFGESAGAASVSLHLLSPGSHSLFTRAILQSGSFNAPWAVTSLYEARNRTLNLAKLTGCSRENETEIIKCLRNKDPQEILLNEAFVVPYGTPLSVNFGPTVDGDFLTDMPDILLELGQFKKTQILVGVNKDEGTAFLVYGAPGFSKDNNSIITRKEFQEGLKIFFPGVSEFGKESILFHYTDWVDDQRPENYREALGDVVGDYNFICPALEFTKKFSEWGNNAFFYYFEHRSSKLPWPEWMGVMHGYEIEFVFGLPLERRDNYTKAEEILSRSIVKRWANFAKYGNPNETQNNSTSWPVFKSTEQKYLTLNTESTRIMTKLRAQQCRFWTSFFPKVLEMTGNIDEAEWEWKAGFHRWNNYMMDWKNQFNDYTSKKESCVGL
T3 sequence (O42275 whole entry): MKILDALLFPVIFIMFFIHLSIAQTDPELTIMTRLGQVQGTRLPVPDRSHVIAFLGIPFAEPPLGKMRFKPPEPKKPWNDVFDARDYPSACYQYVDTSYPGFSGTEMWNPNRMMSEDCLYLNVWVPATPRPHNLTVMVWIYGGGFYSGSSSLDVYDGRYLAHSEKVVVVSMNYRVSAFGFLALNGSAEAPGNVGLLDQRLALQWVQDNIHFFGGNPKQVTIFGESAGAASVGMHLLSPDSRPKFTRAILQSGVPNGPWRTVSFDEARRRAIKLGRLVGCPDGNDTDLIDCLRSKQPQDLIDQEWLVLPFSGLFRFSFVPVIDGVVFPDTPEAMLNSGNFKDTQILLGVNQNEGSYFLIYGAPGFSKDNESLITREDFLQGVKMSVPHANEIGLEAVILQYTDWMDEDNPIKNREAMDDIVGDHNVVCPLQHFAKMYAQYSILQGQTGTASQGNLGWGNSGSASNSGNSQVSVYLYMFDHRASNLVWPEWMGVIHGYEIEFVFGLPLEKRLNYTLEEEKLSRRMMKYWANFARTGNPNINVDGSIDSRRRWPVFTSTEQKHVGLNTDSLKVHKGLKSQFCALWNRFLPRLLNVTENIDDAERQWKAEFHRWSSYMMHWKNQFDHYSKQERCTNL
T2 sequence (P81908 whole entry): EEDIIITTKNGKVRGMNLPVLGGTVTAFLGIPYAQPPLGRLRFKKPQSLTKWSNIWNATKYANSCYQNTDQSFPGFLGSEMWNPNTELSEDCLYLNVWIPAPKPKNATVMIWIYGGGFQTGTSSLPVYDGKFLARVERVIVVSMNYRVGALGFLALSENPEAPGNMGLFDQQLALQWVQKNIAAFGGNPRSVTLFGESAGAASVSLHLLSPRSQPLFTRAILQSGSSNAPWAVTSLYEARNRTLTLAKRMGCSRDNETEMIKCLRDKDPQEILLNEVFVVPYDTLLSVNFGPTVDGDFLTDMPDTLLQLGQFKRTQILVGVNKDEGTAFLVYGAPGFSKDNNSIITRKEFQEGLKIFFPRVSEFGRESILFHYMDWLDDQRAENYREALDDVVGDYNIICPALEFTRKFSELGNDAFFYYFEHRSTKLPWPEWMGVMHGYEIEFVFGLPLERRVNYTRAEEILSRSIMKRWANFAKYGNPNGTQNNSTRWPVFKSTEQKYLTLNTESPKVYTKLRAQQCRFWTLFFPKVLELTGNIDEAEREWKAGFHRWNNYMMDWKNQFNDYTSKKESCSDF
Chain of Amyloid-beta precursor protein (Homo sapiens) (P05067 whole entry): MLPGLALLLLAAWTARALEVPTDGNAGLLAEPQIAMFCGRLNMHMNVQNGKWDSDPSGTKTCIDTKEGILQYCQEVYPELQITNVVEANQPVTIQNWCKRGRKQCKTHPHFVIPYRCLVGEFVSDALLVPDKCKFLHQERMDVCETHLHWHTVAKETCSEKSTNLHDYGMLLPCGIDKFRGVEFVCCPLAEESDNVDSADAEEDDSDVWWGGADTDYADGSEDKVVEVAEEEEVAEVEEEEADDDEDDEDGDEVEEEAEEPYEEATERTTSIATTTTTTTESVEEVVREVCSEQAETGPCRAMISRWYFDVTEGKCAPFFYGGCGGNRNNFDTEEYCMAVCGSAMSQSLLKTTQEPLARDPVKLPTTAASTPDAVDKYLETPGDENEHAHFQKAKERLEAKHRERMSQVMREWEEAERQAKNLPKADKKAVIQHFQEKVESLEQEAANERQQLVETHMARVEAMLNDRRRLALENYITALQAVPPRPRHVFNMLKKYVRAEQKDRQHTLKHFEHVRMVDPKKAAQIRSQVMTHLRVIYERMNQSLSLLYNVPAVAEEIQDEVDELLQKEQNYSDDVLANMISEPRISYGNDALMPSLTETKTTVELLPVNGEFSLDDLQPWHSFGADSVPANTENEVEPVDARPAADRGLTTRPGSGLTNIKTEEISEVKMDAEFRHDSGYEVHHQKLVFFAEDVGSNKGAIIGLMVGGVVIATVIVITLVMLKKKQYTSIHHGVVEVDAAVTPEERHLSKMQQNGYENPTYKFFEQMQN
Chain of Acetylcholinesterase (Homo sapiens, UniProt P22303) (P22303 whole entry): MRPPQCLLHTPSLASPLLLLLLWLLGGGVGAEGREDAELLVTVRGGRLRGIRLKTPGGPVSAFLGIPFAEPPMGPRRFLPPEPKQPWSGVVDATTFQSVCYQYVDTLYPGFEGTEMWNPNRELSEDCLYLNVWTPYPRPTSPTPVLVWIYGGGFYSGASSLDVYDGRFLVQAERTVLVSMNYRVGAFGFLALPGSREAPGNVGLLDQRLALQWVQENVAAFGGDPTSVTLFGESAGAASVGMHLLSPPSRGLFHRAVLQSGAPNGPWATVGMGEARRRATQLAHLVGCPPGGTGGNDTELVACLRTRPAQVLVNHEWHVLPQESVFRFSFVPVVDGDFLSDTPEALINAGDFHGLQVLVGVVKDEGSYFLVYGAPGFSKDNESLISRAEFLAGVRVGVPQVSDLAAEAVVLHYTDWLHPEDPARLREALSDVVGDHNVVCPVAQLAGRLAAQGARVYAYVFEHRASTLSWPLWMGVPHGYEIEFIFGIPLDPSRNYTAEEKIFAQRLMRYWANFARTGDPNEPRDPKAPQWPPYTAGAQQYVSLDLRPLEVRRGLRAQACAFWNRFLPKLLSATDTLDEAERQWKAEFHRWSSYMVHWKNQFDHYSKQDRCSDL
Chain of Acetylcholinesterase (Electrophorus electricus) (O42275 24-633 limits assumed): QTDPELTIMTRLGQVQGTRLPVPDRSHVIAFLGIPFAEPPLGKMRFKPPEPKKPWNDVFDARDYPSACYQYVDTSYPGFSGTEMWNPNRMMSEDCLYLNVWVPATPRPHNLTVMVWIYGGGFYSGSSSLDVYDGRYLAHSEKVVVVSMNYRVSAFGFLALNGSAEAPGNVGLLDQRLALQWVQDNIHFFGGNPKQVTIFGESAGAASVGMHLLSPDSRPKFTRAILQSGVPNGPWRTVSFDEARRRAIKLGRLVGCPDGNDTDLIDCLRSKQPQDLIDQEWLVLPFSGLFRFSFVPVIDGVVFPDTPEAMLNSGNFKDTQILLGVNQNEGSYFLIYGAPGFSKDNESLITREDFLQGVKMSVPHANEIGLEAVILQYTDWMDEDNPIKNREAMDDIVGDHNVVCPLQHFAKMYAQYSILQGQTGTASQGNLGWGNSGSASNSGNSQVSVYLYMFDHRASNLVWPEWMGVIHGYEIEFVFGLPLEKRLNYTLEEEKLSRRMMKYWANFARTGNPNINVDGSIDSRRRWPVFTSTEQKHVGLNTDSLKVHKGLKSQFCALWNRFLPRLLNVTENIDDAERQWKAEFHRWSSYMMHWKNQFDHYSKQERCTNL

CC(C)c1ccc(NC(=O)Oc2ccc3c(c2)[C@]2(C)CCC(C)[C@@H]2C3C)cc1 (stereo partly drawn)
IC50 (Cholinesterase [1]): 0.05 µM
IC50 (Acetylcholinesterase [2]): 0.76 µM

CCN1CCc2c(c3cc(F)ccc3n2CCC(=O)N2c3ccccc3Sc3ccccc32)C1
IC50 (Cholinesterase [3]): 0.39 µM

Oc1ccccc1/C=C/c1cc(O)c(F)c(O)c1
IC50 (Cholinesterase [4]): 10 µM
Ratio IC50 [5]: 96
IC50 (Acetylcholinesterase [6]): 960 µM

CC(C)c1ccc(NC(=O)Oc2ccc3c(c2)[C@]2(C)CCN(CCc4ccccc4)[C@@H]2N3C)cc1
inhibition in vivo at 2.5 mg/kg (Rattus norvegicus [7]): 290%
inhibition in vivo at 1.25 mg/kg (Rattus norvegicus [8]): 180%

COc1ccc(Cn2cc(CNc3c4c(nc5ccccc35)CCCC4)nn2)cc1
IC50 (Cholinesterase [9]): 0.055 µM

COc1ccc(N[C@H]2CCC[C@@H](OC(=O)N(C)C)C2)cc1
IC50 (Cholinesterase [10]): 110 µM

Oc1ccc(/C=C/c2cc(O)cc(O)c2)cc1 [RESVERATROL]
IC50 (Cholinesterase [4]): 400 µM
IC50 (Acetylcholinesterase [6]): > 1000 µM

c1ccc2c(SCCCCCCCSc3c4c(nc5ccccc35)CCCC4)c3c(nc2c1)CCCC3
IC50 (Acetylcholinesterase [11]): > 10 µM
IC50 (Cholinesterase [12]): 0.38 µM

CC(=O)N(CCCNc1c2c(nc3ccccc13)CCCC2)CCNc1c2c(nc3ccccc13)CCCC2
IC50 (Acetylcholinesterase [11]): 1.5 µM
IC50 (Cholinesterase [12]): 0.002 µM

O=C(NCCCCCCNc1c2c(nc3ccccc13)CCCCC2)c1cc(O)c2c(c1)C(=O)c1cccc(O)c1C2=O
Ratio IC50 [5]: 11
IC50 (Cholinesterase [13]): 0.011 µM
IC50 (Acetylcholinesterase [14]): 0.13 µM
inhibition [15]: 64.8%

Oc1ccc(-c2cnc3ccccc3n2)cc1
IC50 (Cholinesterase [16]): 7.7 µM

c1ccc(CNc2c3c(nc4ccccc24)CCCC3)nc1
Ratio IC50 (Homo sapiens): 957

c1ccc2c(NCCCCCCCSc3c4c(nc5ccccc35)CCCC4)c3c(nc2c1)CCCC3
IC50 (Acetylcholinesterase [11]): 0.34 µM
IC50 (Cholinesterase [12]): 0.035 µM

COc1ccccc1CN1CCN(Cc2ccc3cccnc3c2O)CC1
inhibition [17]: 44.2%
viability at 24 h, 50 µM [18]: 81%
IC50 (Cholinesterase [19]): 5.71 µM
viability at 24 h, 10 µM [20]: > 90%

COc1ccc(CNc2c3c(nc4ccccc24)CCCC3)cc1OC
Ratio IC50 (Homo sapiens): 110
viability at 24 h, 25 µM [21]: 58.9%
inhibition [22]: 40%

CC(C(=O)NCCCCCCCCNc1c2c(nc3ccccc13)CCCC2)c1ccc(-c2ccccc2)c(F)c1 (stereo not drawn)
Ratio IC50 [5]: 16.4

COc1ccc(N[C@@H]2CCC[C@@H](OC(=O)N(C)C)C2)cc1
IC50 (Cholinesterase [10]): 110 µM
